What was measured:
Axl = biological target: T1, Axl (Homo sapiens, UniProt P30530); experiment: HTRF KinEASE-TK biochemical potency assay, AXL; set-up: purchased Invitrogen; conditions: 5 nM AXL, 700 μM ATP, 800 nM TK Substrate-biotin
T1 sequence (P30530 26-894): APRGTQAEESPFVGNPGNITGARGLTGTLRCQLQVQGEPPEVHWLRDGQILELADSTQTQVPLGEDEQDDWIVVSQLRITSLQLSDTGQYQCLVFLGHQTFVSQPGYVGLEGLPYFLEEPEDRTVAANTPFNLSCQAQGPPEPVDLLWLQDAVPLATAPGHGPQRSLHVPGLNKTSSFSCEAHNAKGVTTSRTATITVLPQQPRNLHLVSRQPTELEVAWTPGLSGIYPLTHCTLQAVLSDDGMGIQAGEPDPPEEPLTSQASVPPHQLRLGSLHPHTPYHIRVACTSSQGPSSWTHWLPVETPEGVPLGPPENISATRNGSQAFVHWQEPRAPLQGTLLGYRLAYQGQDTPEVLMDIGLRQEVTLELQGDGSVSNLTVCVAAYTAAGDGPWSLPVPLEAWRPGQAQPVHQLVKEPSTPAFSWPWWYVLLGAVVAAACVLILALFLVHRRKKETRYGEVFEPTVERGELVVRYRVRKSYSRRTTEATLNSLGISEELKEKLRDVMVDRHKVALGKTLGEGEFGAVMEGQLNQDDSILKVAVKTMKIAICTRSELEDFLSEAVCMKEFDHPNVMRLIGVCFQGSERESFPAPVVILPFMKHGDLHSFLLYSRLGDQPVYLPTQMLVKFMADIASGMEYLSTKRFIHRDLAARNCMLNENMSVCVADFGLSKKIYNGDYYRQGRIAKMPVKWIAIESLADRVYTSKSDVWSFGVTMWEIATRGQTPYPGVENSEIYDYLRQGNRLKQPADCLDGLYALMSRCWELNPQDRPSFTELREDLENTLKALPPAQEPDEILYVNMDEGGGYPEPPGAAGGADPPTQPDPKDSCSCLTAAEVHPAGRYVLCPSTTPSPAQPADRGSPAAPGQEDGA
Summary of the method: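 Recombinant human kinase preincubated 1 h at RT with compound, then reacted 2 h at RT with 800 nM biotin-TK substrate and 700 μM ATP (final; 5 nM AXL, 1 nM TYRO3 or MER) in HEPES pH 7.4, MgCl2, BSA, DTT, 1% DMSO. HTRF 665/620 ratio read; percent activity versus DMSO and pre-quenched controls.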

human MER = biological target: T2, human MER (Homo sapiens, UniProt Q12866); experiment: HTRF KinEASE-TK biochemical potency assay, MER; conditions: 1 nM MER, 700 μM ATP, 800 nM TK Substrate-biotin
T2 construct: purchased Invitrogen
T2 sequence (Q12866 21-999): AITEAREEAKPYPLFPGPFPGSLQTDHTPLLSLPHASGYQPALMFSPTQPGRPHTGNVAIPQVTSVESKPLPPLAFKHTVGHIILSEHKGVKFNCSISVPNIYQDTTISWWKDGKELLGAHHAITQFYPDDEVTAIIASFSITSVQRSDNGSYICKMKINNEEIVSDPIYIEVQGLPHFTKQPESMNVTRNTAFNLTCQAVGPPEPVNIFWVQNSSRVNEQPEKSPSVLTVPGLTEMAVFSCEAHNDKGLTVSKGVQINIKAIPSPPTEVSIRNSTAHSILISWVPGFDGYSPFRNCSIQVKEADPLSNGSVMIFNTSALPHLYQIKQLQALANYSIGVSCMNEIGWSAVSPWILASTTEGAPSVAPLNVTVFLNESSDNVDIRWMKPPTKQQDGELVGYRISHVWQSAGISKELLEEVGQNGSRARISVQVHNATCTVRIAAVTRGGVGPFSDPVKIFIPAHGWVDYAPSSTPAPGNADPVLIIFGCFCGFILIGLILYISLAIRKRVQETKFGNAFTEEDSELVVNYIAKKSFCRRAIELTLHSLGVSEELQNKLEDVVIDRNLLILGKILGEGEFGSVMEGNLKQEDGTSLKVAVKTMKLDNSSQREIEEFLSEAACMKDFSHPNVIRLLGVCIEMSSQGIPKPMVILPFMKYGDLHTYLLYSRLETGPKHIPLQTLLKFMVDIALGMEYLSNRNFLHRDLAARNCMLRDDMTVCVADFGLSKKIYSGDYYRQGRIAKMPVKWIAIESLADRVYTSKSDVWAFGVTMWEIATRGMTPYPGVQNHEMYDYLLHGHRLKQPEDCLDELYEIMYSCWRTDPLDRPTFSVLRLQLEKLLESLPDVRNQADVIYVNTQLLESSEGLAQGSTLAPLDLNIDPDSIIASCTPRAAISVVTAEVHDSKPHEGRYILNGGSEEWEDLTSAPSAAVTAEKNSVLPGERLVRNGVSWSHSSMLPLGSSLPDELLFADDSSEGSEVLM
Protocol: Purified recombinant human AXL, TYRO3 and MER proteins were purchased from Invitrogen™. 10 nM AXL, 2 nM TYRO3 or MER were incubated with varying concentrations of compounds in 50 mM HEPES, pH 7.4, 10 mM MgCl2, 0.01% BSA, 1 mM DTT and 2% DMSO in a total volume of 20 μl in a 384-well microplate (Corning™ #3640) at RT for 1 h. The AXL, TYRO3 and MER enzymatic reaction was initiated by transferring 10 μl of enzyme and compound mixture into 10 μl of 1.6 μM TK Substrate-biotin (HTRF® KinEASE-TK kit, Cisbio) and 1400 μM ATP pre-incubated in 50 mM HEPES, pH 7.4, 10 mM MgCl2, 0.01% BSA, 1 mM DTT in a 384-well microplate (Corning™ #3640) at RT, giving the final reaction conditions: 5 nM AXL, 1 nM TYRO3 or MER, 800 nM TK Substrate-biotin and 700 μM ATP in 50 mM HEPES, pH 7.4, 10 mM MgCl2, 0.01% BSA, 1 mM DTT and 1% DMSO with varying concentrations of compounds. Following 2 h incubation at RT, the AXL, TYRO3 and MER enzymatic reaction was stopped by transfer of 10 μl of reaction into 10 μl of detection mix (400 nM Streptavidin-XL665, 200-fold dilution TK Antibody-Cryptate and detection buffer, HTRF® KinEASE-TK kit, Cisbio) in a white 384-well microplate (Perkin Elmer, OptiPlate 384). After 1 h incubation at RT, the plate was put into a plate reader (Evision) to read at 665/620 nm (acceptor/donor) for HTRF. The value of the DMSO blank (MIN inhibition=100% activity) was used as a negative control. The positive control was established by adding 5 μl of enzyme and DMSO mixture into 10 μl of detection mix followed by addition of 5 μl of TK Substrate-biotin and ATP mixture (MAX inhibition=0% activity). To calculate the percent activity, Equation 1 was used. Ratio 665/620 is the value at a given compound concentration: […]

SMILES	IC50 (Axl) [nM]	IC50 (human MER) [nM]
C[C@@H]1CCCN1C1(C)CCc2ccc(-c3cnc4[nH]nc(-c5ccc(C(N)=O)c(F)c5)c4c3)cc2CC1 (stereo partly drawn) [Example 52, 2-Fluoro-4-(5-(7-methyl-7-((R)-2-methylpyrrolidin-1-yl)-6,7,8,9-tetrahydro-5H-benzo[7]annulen-2-yl)-1H-pyrazolo[3,4-b]pyridin-3-yl)benzamide]	< 100	100 to 1000
COc1cc(-c2n[nH]c3ncc(-c4ccc5c(c4)CCC(C)(N4CCC[C@H]4C)CC5)cc23)ccc1C(N)=O (stereo partly drawn) [Example 53, 2-Methoxy-4-(5-(7-methyl-7-((R)-2-methylpyrrolidin-1-yl)-6,7,8,9-tetrahydro-5H-benzo[7]annulen-2-yl)-1H-pyrazolo[3,4-b]pyridin-3-yl)benzamide]	< 100	100 to 1000
C[C@@H]1CCCN1C1(C)CCc2ccc(-c3cnc4[nH]nc(-c5ccc(C(N)=O)cc5)c4c3)cc2CC1 (stereo partly drawn) [Example 54, 4-(5-(7-Methyl-7-((R)-2-methylpyrrolidin-1-yl)-6,7,8,9-tetrahydro-5H-benzo[7]annulen-2-yl)-1H-pyrazolo[3,4-b]pyridin-3-yl)benzamide]	< 100	< 100
Cc1cc(-c2n[nH]c3ncc(-c4ccc5c(c4)CC[C@@H](N4CCCC4)CC5)cc23)cc(C)c1C(=O)N1CCNCC1 [Example 55, 1-(2,6-Dimethyl-4-{5-[(7S)-7-(pyrrolidin-1-yl)-6,7,8,9-tetrahydro-5H-benzo[7]annulen-2-yl]-1H-pyrazolo[3,4-b]pyridin-3-yl}benzoyl)piperazine]	< 100	100 to 1000
Cc1cc(-c2n[nH]c3ncc(-c4ccc5c(c4)CC[C@@H](N4CCCC4)CC5)cc23)cc(Cl)c1C(=O)N1CCNCC1 [Example 56, 1-(2-Chloro-6-methyl-4-{5-[(7S)-7-(pyrrolidin-1-yl)-6,7,8,9-tetrahydro-5H-benzo[7]annulen-2-yl]-1H-pyrazolo[3,4-b]pyridin-3-yl}benzoyl)piperazine]	< 100	< 100
C[C@@H]1CCCN1C1(C)CCc2ccc(-c3cnc4[nH]nc(-c5ccc(C(C)(C)O)c(Cl)c5)c4c3)cc2CC1 (stereo partly drawn) [Example 57, 2-[2-Chloro-4-(5-{7-methyl-7-[(2R)-2-methylpyrrolidin-1-yl]-6,7,8,9-tetrahydro-5H-benzo[7]annulen-2-yl}-1H-pyrazolo[3,4-b]pyridin-3-yl)phenyl]propan-2-ol]	< 100	100 to 1000
C[C@H]1CCCN1C1(C)CCc2ccc(-c3cnc4[nH]nc(-c5ccc(C(C)(C)O)c(Cl)c5)c4c3)cc2CC1 (stereo partly drawn) [Example 58, 2-[2-Chloro-4-(5-{7-methyl-7-[(2S)-2-methylpyrrolidin-1-yl]-6,7,8,9-tetrahydro-5H-benzo[7]annulen-2-yl}-1H-pyrazolo[3,4-b]pyridin-3-yl)phenyl]propan-2-ol]	< 100	100 to 1000

Results, then the compound that gave them:

IC50 (Axl) [nM]	IC50 (human MER) [nM]	SMILES
< 100	100 to 1000	CC(C)S(=O)(=O)c1ccc(-c2n[nH]c3ncc(-c4ccc5c(c4)CC[C@@H](N4CCCC4)CC5)cc23)cc1 [Example 42, (S)-3-(4-(Isopropylsulfonyl)phenyl)-5-(7-(pyrrolidin-1-yl)-6,7,8,9-tetrahydro-5H-benzo[7]annulen-2-yl)-1H-pyrazolo[3,4-b]pyridine]
< 100	> 1000	C[C@@H]1CCCN1C1(C)CCc2ccc(-c3cnc4[nH]nc(-c5ccc(S(=O)(=O)C6CCCC6)cc5)c4c3)cc2CC1 (stereo partly drawn) [Example 45, 3-(4-(Cyclopentylsulfonyl)phenyl)-5-(7-methyl-7-((R)-2-methylpyrrolidin-1-yl)-6,7,8,9-tetrahydro-5H-benzo[7]annulen-2-yl)-1H-pyrazolo[3,4-b]pyridine]
< 100	100 to 1000	C[C@@H]1CCCN1C1(C)CCc2ccc(-c3cnc4[nH]nc(-c5ccc(S(=O)(=O)C6CCC6)cc5)c4c3)cc2CC1 (stereo partly drawn) [Example 46, 3-(4-(Cyclobutylsulfonyl)phenyl)-5-(7-methyl-7-((R)-2-methylpyrrolidin-1-yl)-6,7,8,9-tetrahydro-5H-benzo[7]annulen-2-yl)-1H-pyrazolo[3,4-b]pyridine]
< 100	100 to 1000	Cc1cc(-c2n[nH]c3ncc(-c4ccc5c(c4)CCC(N4CCCC4)CC5)cc23)ccc1C(=O)N1CCNCC1 (stereo not shown) [Example 47, 1-(2-Methyl-4-{5-[7-(pyrrolidin-1-yl)-6,7,8,9-tetrahydro-5H-benzo[7]annulen-2-yl]-1H-pyrazolo[3,4-b]pyridin-3-yl}benzoyl)piperazine]
< 100	> 1000	Cc1cc(-c2n[nH]c3ncc(-c4ccc5c(c4)CCN(C(=O)C(C)C)CC5)cc23)ccc1C(=O)N1CCNCC1 [Example 48, 2-Methyl-1-(7-{3-[3-methyl-4-(piperazine-1-carbonyl)phenyl]-1H-pyrazolo[3,4-b]pyridin-5-yl}-2,3,4,5-tetrahydro-1H-3-benzazepin-3-yl)propan-1-one]
< 100	100 to 1000	Cc1cc(-c2n[nH]c3ncc(-c4ccc5c(c4)CC[C@@H](N4CCCC4)CC5)cc23)cc(C)c1C(N)=O [Example 49, 2,6-Dimethyl-4-{5-[(7S)-7-(pyrrolidin-1-yl)-6,7,8,9-tetrahydro-5H-benzo[7]annulen-2-yl]-1H-pyrazolo[3,4-b]pyridin-3-yl}benzamide]
< 100	< 100	Cc1cc(-c2n[nH]c3ncc(-c4ccc5c(c4)CC[C@@H](N4CCCC4)CC5)cc23)cc(Cl)c1C(N)=O [Example 50, 2-Chloro-6-methyl-4-{5-[(7S)-7-(pyrrolidin-1-yl)-6,7,8,9-tetrahydro-5H-benzo[7]annulen-2-yl]-1H-pyrazolo[3,4-b]pyridin-3-yl}benzamide]

Source: patent US20240246967A1, “AXL COMPOUNDS” (ARCUS BIOSCIENCES, INC., priority 2021, published 2024)
